{
  "source": "patent US9468632B2",
  "about": "“Methods and compositions for targeting cancer stem cells” (The Regents of the University of Michigan, priority 2012, dated 2016)",
  "key": {"[1]": {"tested_on": "all the ALDH1A isoforms", "assay": "In vitro enzymatic inhibition assays, text summary for ALDH1A isoforms", "assay_type": "biochemical"}, "[2]": {"tested_on": "ALDH+ cells", "assay": "FACS isolated single cells in microfluidic culture, cell death", "assay_type": "cell-based", "protocol": "(§1) In order to determine if the loss of CD133 or ALDH expressing cells is due to downregulation/loss of enzyme function or due to cell death, FACS isolated CD133+ or ALDH+ cells were treated as single cells in microfluidic culture. 673 treatment was associated with the death of ˜93% of CD133+ cells and 65% death of ALDH+ cells (FIG. 1B)."}, "[3]": {"tested_on": "CD133+ cells", "assay": "FACS isolated single cells in microfluidic culture, cell death", "assay_type": "cell-based", "protocol": "as §1"}, "[4]": {"tested_on": "ovarian cancer cell lines including A2780, SKOV3, and OvCAR8", "assay": "MTT assay, ovarian cancer cell lines", "assay_type": "cell-based, human", "conditions": "72 hours, range over cell lines", "protocol": "(§2) TD50 ranged from 12-50 uM."}, "[5]": {"tested_on": "A2780", "assay": "MTT assay, A2780 viability", "assay_type": "cell-based, human", "protocol": "as §2"}, "[6]": {"tested_on": "pancreatic cancer cell lines and breast cancer cell lines (ASPC, PANC1, MCF7)", "assay": "MTT toxicity screen, pancreatic and breast cancer cell lines", "assay_type": "cell-based", "protocol": "A. MTT assay of cytotoxicity of indicated compounds at increasing doses 72 hours after treatment of ovarian cancer cell. B. MTT assay for pancreatic (ASPC and PANC1) and breast cancer (MCF7) cell lines. C. MTT assays of 673 for normal cells (HOSE and MSC) and ovarian cancer (OvCAR8) controls.\nas §2"}, "[7]": {"tested_on": "FACS isolated CD133+A2780 cells", "assay": "Tumor sphere forming assay, CD133+ A2780", "assay_type": "cell-based, human", "conditions": "single treatment with 10 μM", "protocol": "(§3) Tumor associated ascites cells were isolated by centrifugation and treated with ACK lysis buffer (Fischer Scientific). 5000 cells were placed in each well of the 6-well ultra-low adherence plates (Corning, Acton, Mass., USA) with 3 ml of supplemented MEBM (Lonza). After 24 hours, cells were treated with either media alone or UM #673. Media was added every 3-4 days, and all tumor sphere counts were done at 2 weeks. Alternatively, sphere assays were also performed with cancer cell lines A2780 and OVCAR8. Cells in culture were trypsinized and 2000 cells were either directly placed or FACS isolated for CD133+ and CD133− cells before plating in wells of ultra-low adherence plates. Images of spheres were photographed using the Olympus Microsuite Biological suite Software.\n(§4) In order to further characterize UM #673 activity targeting OvCSC, a functional CSC assay was performed. Tumor sphere forming assays were performed with both FACS isolated CD133+A2780 cells and OVCAR8 cells (a cell line with >90% CD133 expression). […] This assay was repeated using primary human ovarian cancer associated ascites cell from three patients. Treatment with 673 was associated with an average of 7.3 fold (range 4-50) reduction in the number of spheres formed (FIG. 4A)."}, "[8]": {"tested_on": "OVCAR8 cells", "assay": "Tumor sphere forming assay, OVCAR8", "assay_type": "cell-based, human", "protocol": "as §3, §4"}, "[9]": {"tested_on": "primary human ovarian cancer associated ascites cell", "assay": "Tumor sphere forming assay, primary ascites cells", "assay_type": "cell-based", "conditions": "three patients, range 4-50", "protocol": "as §3, §4"}, "[10]": {"tested_on": "in vitro treated, PI-/Annexin-FACS isolated live cells", "assay": "Tumor initiation capacity of in vitro treated live cells injected into mice", "assay_type": "in vivo", "protocol": "An important functional aspect of a cancer stem cell is the ability to initiate tumors with limited cell numbers. In order to determine if UM673 could impact tumor initiation, cells were treated in vitro with a single dose of UM673 alone or in combination with cisplatin. Cells were allowed to recover for three days and then PI(−)/Annexin(−) live cells were faxed isolated and injected into mice. 200, 1000, or 5000 cells from each treatment group (n=4-10/group) were injected."}, "[11]": {"tested_on": "A2780 tumor cell xenografts", "assay": "A2780 tumor cell xenografts, tumor growth", "assay_type": "in vivo, mice", "conditions": "unsorted A2780 cells, treatment from day 3", "protocol": "(§5) 6-8 week old nude female mice were purchased from Charles River Laboratories. All xenograft experiments were performed with approval of the University Committee on Use and Care of Animals of the University of Michigan. To generate tumors, 7.5×10^4 unsorted A2780 cells or 7500 CD133+ sorted A2780 cells were combined with 100 μl of DPBS and 100 μl of Matrigel (BD Biosciences), and then implanted subcutaneously into bilateral axillae of each mouse. 3 days after inoculation with tumors, mice were given an intra-peritoneal injection of (1) control DMSO 40 μl, (2) Cisplatin 250 μg/ml, (3) UM #673 10 μM, or (4) Cisplatin plus UM #673 (n=9 mice per treatment group). Tumor growth was measured using calipers, and tumor volume was calculated based on the modified ellipsoid formula (L×W×W/2), where L is the length and W is the width of the tumor. The mice were euthanized when tumors reached 1.5 to 2 cm^3 and animal safety euthanasia guidelines were met. Intraperitoneal tumors were generated using 5×10^6 OVCAR8 in […] of PBS and injected I.P. 3 days after inoculation, mice were given intra-peritoneal injection of Cisplatin or Cisplatin plus UM #673.\nThe impact of UM673 as a single agent was evaluated. NOD/SCID mice were inoculated with 1×10^5 unsorted A2780 cells and treatment was initiated three days after tumor inoculation with either vehicle control or UM #673. […] This is consistent with other studies of CSC targeting agents.\nThe experiments were repeated in combination with cisplatin. In addition, xenografts from both whole cell line and FACS isolated CD133+ cells were treated."}, "[12]": {"tested_on": "isolated CD133+ cancer stem cells initiated tumors", "assay": "CD133+ cancer stem cell initiated tumors, tumor growth", "assay_type": "in vivo, mice", "conditions": "single agent", "protocol": "as §5\nThe impact of UM673 as a single agent was evaluated. NOD/SCID mice were inoculated with 1×10^5 unsorted A2780 cells and treatment was initiated three days after tumor inoculation with either vehicle control or UM #673. […]"}, "[13]": {"tested_on": "primary human tumor xenografts", "assay": "Primary human tumor xenografts from chemotherapy refractory ovarian cancer", "assay_type": "in vivo, mice", "excerpt": "In order to confirm in vivo activity against primary ovarian cancers, primary human tumor xenografts were generated from a patient with chemotherapy refractory ovarian cancer. Xenografts were allowed to grow until they reached ˜500 mm^3, and then treatment with either vehicle, cisplatin or cisplatin and UM 673 was initiated. […] After discontinuation of therapy, tumor regrowth was observed after approximately 4 weeks (FIG. 5D)."}, "[14]": {"tested_on": "Annexin-V staining (apoptosis)", "assay": "PI/Annexin-V FACS analysis", "assay_type": "cell-based", "protocol": "PI/Annexin-V FACS analysis of UM673 treated cells was performed to determine if cells were undergoing apoptosis."}, "[15]": {"tested_on": "intracellular calcium", "assay": "Fluorescent analysis of intra-cellular calcium", "assay_type": "cell-based", "protocol": "Programmed cell necrosis is known to be linked with decreases in cellular ATP and an increase in intracellular calcium. […] Furthermore, reduction in CD 133 positive cells with UM 673 treatment could be partially abrogated by the calcium scavenging compound BAPTA (FIG. 6E). As program cell necrosis is known to be activated via the RIP kinases, the impact of the RIP kinase inhibitor necrostatin was evaluated."}, "[16]": {"tested_on": "UCP1 and UCP3", "assay": "qRT-PCR of necrosis associated genes", "assay_type": "cell-based", "protocol": "(§6) ALDH1A isoforms are the primary members of the ‘retinaldehyde’ subgroup of aldehyde dehydrogenases. Retinaldehydes play a primary role in the biosynthesis of retinoic acid and thereby regulate retinoic acid mediated transcription. Retinoic acid transcription changes in cells treated with UM673 were assayed. […] 80× induction of the mitochondrial uncoupling proteins UCP1 and UCP3 was observed (FIG. 7B)."}, "[17]": {"tested_on": "Oct4, and Sox2", "assay": "qRT-PCR of stem cell genes", "assay_type": "cell-based", "protocol": "as §6"}, "[18]": {"tested_on": "cellular oxygen consumption", "assay": "SeaHorse cellular metabolism studies", "assay_type": "cell-based", "protocol": "UCP1 and UCP3 proteins play a critical role in cellular metabolism. The impact of UM673 on cellular metabolism was evaluated."}, "[19]": {"tested_on": "mitochondrial metabolism", "assay": "LCMS of cellular metabolites", "assay_type": "cell-based"}, "[20]": {"tested_on": "A2770 cells", "assay": "FACS analysis of CD133 and ALDH expressing cells", "assay_type": "cell-based"}, "[21]": {"tested_on": "normal human ovarian surface epithelial cells", "conditions": "72 h", "quoted_text": "(§7) 7500 of HOSE, MSC, and OVCAR8 cells were plated on a 96-well plate and rested for 24 hours. They were then treated with incremental doses of 673 for 72 hours. They were then analyzed according to the Vybrant® MTT Cell Proliferation Assay Kit (Invitrogen).\n(§8) The toxicity of these compounds versus normal human ovarian surface epithelial cells and healthy adipose derived mesenchymal stem cells was assayed."}, "[22]": {"tested_on": "healthy adipose derived mesenchymal stem cells", "conditions": "human, 72 h", "quoted_text": "as §7, §8"}},
  "note": "pIC50: −log10 of the molar value.",
  "data": [
    {"molecule": "Cc1cc(N2Cc3ccccc3C2)ccc1C=O", "note": "[UM673]", "values": [
      {"measurement": "pIC50", "setting": "[1]", "value": "> 6.64"},
      {"measurement": "death of ALDH+ cells", "setting": "[2]", "value": 65, "unit": "%"},
      {"measurement": "death of CD133+ cells", "setting": "[3]", "value": "~93", "unit": "%"},
      {"measurement": "TD50", "setting": "[4]", "value": "12 to 50", "unit": "µM"},
      {"measurement": "lowest dose with measurable effects on A2780 viability", "setting": "[5]", "value": 2.5, "unit": "µM"},
      {"measurement": "cytotoxicity versus bulk populations", "setting": "[6]", "value": "variable modest cytotoxicity"},
      {"measurement": "decrease in sphere number", "setting": "[7]", "value": 2.6, "unit": "fold"},
      {"measurement": "reduction in total cell number", "setting": "[7]", "value": "~8", "unit": "fold"},
      {"measurement": "decrease in sphere formation", "setting": "[8]", "value": 5.6, "unit": "fold"},
      {"measurement": "reduction total cell numbers", "setting": "[8]", "value": 3, "unit": "fold"},
      {"measurement": "average reduction in the number of spheres formed", "setting": "[9]", "value": 7.3, "unit": "fold"},
      {"measurement": "tumor initiation (tumors/injections)", "setting": "[10]; 200 cells injected", "value": "2/4"},
      {"measurement": "tumor initiation (tumors/injections)", "setting": "[10]; 1000 cells injected", "value": "4/4"},
      {"measurement": "tumor initiation (tumors/injections)", "setting": "[10]; 5000 cells injected", "value": "4/5"},
      {"measurement": "effect on tumor initiation capacity", "setting": "[10]; compared to untreated controls", "value": "neither cisplatin or UM673 affected tumor initiation"},
      {"measurement": "tumor growth", "setting": "[11]", "value": "statistically significant reduction in tumor growth"},
      {"measurement": "tumor growth", "setting": "[11]; listed as UM 673", "value": "modest restrictions in tumor growth"},
      {"measurement": "tumor growth", "setting": "[12]", "value": "Greatest activity"},
      {"measurement": "time to tumor regrowth after discontinuation of therapy", "setting": "[13]; mouse, in vivo", "value": "approximately 4 weeks"},
      {"measurement": "tumor growth", "setting": "[13]; treatment started at ˜500 mm^3", "value": "prevented tumor regrowth"},
      {"measurement": "Annexin-V staining", "setting": "[14]", "value": "not associated with an increase in Annexin-V staining"},
      {"measurement": "increase in intracellular calcium", "setting": "[15]", "value": "fourfold increase"},
      {"measurement": "induction of the mitochondrial uncoupling proteins UCP1 and UCP3", "setting": "[16]", "value": 80, "unit": "×"},
      {"measurement": "expression of stem cell factors Oct4 and Sox2", "setting": "[17]", "value": "down regulated"},
      {"measurement": "cellular oxygen consumption", "setting": "[18]", "value": "slow and steady decline"},
      {"measurement": "levels of citrate", "setting": "[19]", "value": "marked decrease"},
      {"measurement": "loss of ALDH+ and CD133+ cells", "setting": "[20]", "value": "reductions in not only ALDH+ cells, but also CD133+ cells"},
      {"measurement": "TD50", "setting": "[21]", "value": "~105", "unit": "µM"},
      {"measurement": "TD50", "setting": "[22]", "value": "~105", "unit": "µM"}
    ]}
  ]
}
